Laboratory results reported in US20190307713A1, “COMBINATIONS OF DICLOFENAC AND H2 RECEPTOR ANTAGONISTS FOR THE TREATMENT OF PAIN AND INFLAMMATION” (priority 2016, published 2019).

Assays:
[1] = in vivo; conditions: male, Wistar, rat, po
Protocol: Male Wistar rats (240-260 g) were maintained in an air conditioned quarters at a temperature of 22±2° C. and a relative humidity of 50±10%. Food and water were allowed ad libitum. The animals were acclimatized to the facilities for five days, and then fasted with free access to water for 12 h prior to the experiment. All these animals were housed under similar conditions.
Blood (0.2 ml) was taken from the tail vein prior to administration of test substances (0 h) and blood was taken after 0.083, 0.167, 0.25, 0.5, 1, 2, 4, 8 and 12 h respectively.
Blood samples were collected in tubes containing %5 Nat-EDTA and kept on ice until dichloromethane was added and they were centrifuged at 7000×g for 5 min at 4° C. and supernatants were collected for HPLC analysis.

[2] = system: Caco-2 intestinal permeability model; assay: Caco-2 permeability study of diclofenac potassium and famotidine separately and in combination; type: in vitro ADME; conditions: Caco-2, 50 μg/ml diclofenac potassium (20 μg/ml famotidine in combination)
Protocol: The permeability study designed using Caco-2 intestinal permeability model was prepared by using Millipore 96 well insert plate as 10,000 cells/well on Feb. 21, 2017 and placed in an incubator. Tests on integrity, viability and permeability were performed on Mar. 15, 2017. Viability results were obtained by MTT and integrity results were obtained using Lucifer yellow and the plate was determined to be eligible for permeability study. […] Methanol was used as solvent for the samples and the samples were analyzed in LC/MSMS 8040 analyzer using mobile phase, Methanol+bidistillated water+Ammonium formate.

[3] = oral, instant or immediate release formulations; cited from earlier work

| Cmax [1] [ng/mL] | Tmax [1] [min] | Permeability percentage of Diclofenac potassium ([2]; 1 hour) [%] | Permeability percentage of Diclofenac potassium ([2]; 1.5 hours) [%] | Permeability percentage of Diclofenac potassium ([2]; 2 hours) [%] | Permeability percentage of Diclofenac potassium ([2]; 4 hours) [%] | Permeability percentage of Diclofenac potassium ([2]; 8 hours) [%] | Structure (SMILES) | Tmax (time to the maximum plasma concentration) [3] |
| --- | --- | --- | --- | --- | --- | --- | --- | --- |
| 1.24 | 15 | 76.93 | 80.76 | 81.80 | 82.22 | 86.32 | O=C(O)Cc1ccccc1Nc1c(Cl)cccc1Cl [Diclofenac potassium, 2-[2-(2,6-dichloroanilino)phenyl]acetic acid] |  |
|  |  |  |  |  |  |  | O=C(O)Cc1ccccc1Nc1c(Cl)cccc1Cl [diclofenac, 2-[2-(2,6-dichloroanilino)phenyl]acetic acid] | about 1 hour |
